Experimental data: article PMC9756341 (Journal of the American Chemical Society, 2022)
Where “and” joins values, the source holds several entries; their conditions need not be identical. Equal entries are not always repeated. Each block holds one substance with its values, some of them ahead of it. The star is where a group is joined. ACC = NC(=O)Cc1cc(=O)oc2cc(N*)ccc12; AMC = Cc1cc(=O)oc2cc(N*)ccc12; Boc = CC(C)(C)OC(=O)*

How the values were obtained:
endogenous tPA and uPA = assay: Competition labelling in Capan-2 conditioned media (NeutrAvidin-HRP blot); settings: 2 h preincubation then bABP 17 1 h, concentrations as high as 40 μM
Description: (§1) Figure 3 ABP validation. […] Pulldown lanes show enriched proteins after streptavidin binding.

KLK6 = assay: Enzyme kinetics to calculate kobs/I, KLK6; type: biochemical, human; settings: KLK6 1.5 nM, fluorogenic substrate 22 5 µM, 50 mM Tris 150 mM NaCl 1 mM EDTA 0.05% Tween20 pH 7.5, room temperature, read every 30 s for 30 min, ex/em 380/440 nm, pseudo first order kinetics, corrected by (1 + [S]/KM), triplicates
KLK7 [1] = molecular target: T1, KLK7 (Homo sapiens, UniProt P49862); assay: Enzyme kinetics to calculate KM, KLK7; type: biochemical; settings: fluorogenic substrate, KLK7 34 nM, 2% DMSO, room temperature, 30 min, Michaelis-Menten model, triplicates
T1 construct: gift from the group of Judith Clements (QUT)
Method: (§2) Reagents were obtained from VWR, Sigma Aldrich, Sartorius, Fluorochem, AGTC, Novabiochem, TCI, Alfa Aesar, Iris Biotech, Thermofisher and Bachem. […]
(§3) (Code 7449-SE) and KLK8 (Code 2025-SE) were obtained from BioTechne. KLK6 was obtained from the group of Aubry Miller (DKFZ) and KLK7 was obtained from the group of Judith Clements (QUT).
(§4) The manufacturer’s recommended buffers were used with uPA and tPA but not KLK8. […]
(§5) Fluorescence measurements were measured using an Envision plate reader. Fluorescence data was processed using Graphpad Prism 8. […]
(§6) 2-chlorotrityl chloride resin. […]
(§7) 380nm/440nm. The data was analysed using Graphpad Prism 8. The initial slopes of each plot were calculated and presented in a bar chart, which represents the substrate specificity of the KLK. Error bars represent the standard deviation between the three replicates.
(§8) Enzyme kinetics to calculate KM. Purified fluorogenic substrates were measured in triplicates. […]
(§9) temperature, fluorescence was read once every 30 s for 30 min from an Envision plate reader at excitation/emission wavelengths of 380nm/440nm. The data was analysed with Graphpad Prism 8, using the Michaelis-Menten model.
(§10) Enzyme kinetics to calculate kobs/I. All ABPs and inhibitors were measured in triplicates. […]
(§11) using a pseudo first order kinetics model. The observed rate of inhibition (kobs) was calculated by plotting a one-phase association. […]

[2] = system: Capan-2 conditioned media proteome; settings: 2 μM, 1 h, NeutrAvidin enrichment, LC–MS/MS, triplicate
Method: Pulldown experiments (LC-MS/MS) Conditioned media was diluted with PBS to exactly 1 mg/mL.
300 µg of total protein was used per replicate. Each condition was performed in triplicate. The inhibitor
or DMSO control (1:100 dilution) was incubated with the media at RT for 2 h with a gentle agitation.
for 1 h. The proteins were precipitated using the MeOH/H2O/CHCl3 method. The pellet was washed
twice with MeOH and dried in air for 5 min. The proteins were resuspended in 2% SDS, 50 mM HEPES
in H2O (pH 8) to a concentration of 10 mg/mL. 50 mM HEPES was added to gradually dilute the protein
back to 1 mg/mL and the samples were centrifuged (17,000 g, 5 min). A 1:1 mixture of NeutrAvidin
agarose resin (15 µL per 300 µg protein) and control agarose resin (15 µL per 300 µg protein) was
prepared and washed with 0.2% SDS, 50 mM HEPES. The test samples were added into the resin and
the mixture was shaken at RT for 2 h. The supernatant was removed, and the beads were washed with
3 × 0.2% SDS, 50 mM HEPES and 3 × 50 mM HEPES. The beads were resuspended in 50 mM HEPES
(50 µL). TCEP was added to a final concentration of 5 mM (1:20 dilution). Chloroacetamide was added
to a final concentration of 10 mM (1:20 dilution). The mixture was shaken at RT for 30 min. To digest
the peptides off the resin, 0.5 µL of trypsin (0.2 mg/mL stock) was added into each sample and the
samples were shaken at 37 °C overnight. […]

[3] = system: recombinant tPA, uPA, or KLK6; settings: 2 h incubation, then fABP 21 for 1 h, in-gel fluorescence
KLK7 [4] = molecular target: T1, KLK7; assay: Enzyme kinetics to calculate kobs/I, KLK7; type: biochemical; settings: for KLK7 kobs/I: KLK7 34 nM, substrate 24 5 µM, 100 mM Na2PO4 0.01% Tween20 pH 8.5, room temperature, 30 min, pseudo first order kinetics, triplicates
Method: as §2, §3
(§12) The manufacturer’s recommended buffers were used with uPA and tPA but not KLK8. The KLK6 assay buffer was as follows: 50 mM Tris 150 mM NaCl, 1 mM EDTA, 0.05% Tween20, pH 7.5. The KLK7/8 buffer was as follows: 100 mM Na2PO4, 0.01% Tween20, pH 8.5. Fluorescence measurements were measured using an Envision plate reader. Fluorescence data was processed using Graphpad Prism 8. […]
as §6

endogenous active KLK6 = settings: Capan-2 conditioned media, streptavidin pulldown, KLK6 western blot
Method: Conditioned media was incubated with bABP 17 (10 μM) or DMSO for 2 h, and labeled proteins enriched on magnetic streptavidin-loaded beads, eluted, and analyzed by western blot against a KLK6 antibody.
Cell culture. Cells were cultured in their recommended culture media supplemented with 10% (v/v)
foetal bovine serum at 37 °C and 5% CO2.
Preparation of conditioned media. Cells were grown in standard growth media to 80% confluency in
a T175 flask. The medium was removed, and the cells were washed with serum-free, phenol-red free
RPMI. The cells were incubated with the same RPMI for 2 h. The medium was replaced once again
with serum-free, phenol-red free RPMI and the cells were incubated for 48 h. The condition medium
was collected and filtered through a 0.2 µm syringe filter. The medium was concentrated (25 mL to
0.75 mL) using a 3 kDa Mw cutoff spin filter to a final concentration of around 1 mg/mL. The protein
concentration was measured using a BioRad DCTM protein assay.
Pulldown experiments (western blot). Conditioned media was diluted with PBS to exactly 1 mg/mL.
200 µg of total protein was used per condition. The ABP or DMSO was added at a 1:100 dilution and
the samples were shaken at RT for 1 h. The proteins were precipitated using the MeOH/H2O/CHCl3
method. The pellet was washed twice with MeOH and dried in air for 5 min. The protein was
resuspended in 2% SDS in PBS to a concentration of 10 mg/mL. PBS was added to gradually dilute
the protein back to 1 mg/mL and the samples were centrifuged (17,000 g, 5 min). 5 µg of protein was
set aside as the “before pulldown” samples. Magnetic streptavidin beads were washed three times with
PBS. The rest of the protein was added into the beads and shaken at RT for 2 h. 5 µg of the supernatant
was set aside for analysis, while the rest was discarded. The beads were washed three times with 1%
SDS in PBS. […]
were boiled at 95 °C for 5 min. The proteins were analysed via SDS-PAGE and western blot analysis. […]
10 min, followed by 180 V for 60 min. Gels were then taken for western blot or in-gel fluorescence. […]

[5] = molecular target: T2, urokinase plasminogen activator (uPA) (Homo sapiens, UniProt P00749); assay: Enzyme kinetics to calculate kobs/I, uPA; type: biochemical
T2 construct: purchased BioTechne 1310-SE
Method: as §2, §3, §12, §6

KLK8 [6] = molecular target: T3, KLK8 (Homo sapiens, UniProt O60259); assay: Enzyme kinetics to calculate kobs/I, KLK8; type: biochemical; settings: for KLK8 kobs/I: KLK8 1 nM, Boc-VPR-AMC 30 µM, 100 mM Na2PO4 0.01% Tween20 pH 8.5, room temperature, 30 min, pseudo first order kinetics, triplicates
T3 construct: Active recombinant FGFBP1 (Code 1593-FB), HSPG2 (Code 2364-ER), uPA (Code 1310-SE), tPA (Code 7449-SE) and KLK8 (Code 2025-SE) were obtained from BioTechne; purchased BioTechne 2025-SE
T3 sequence (O60259 33-260): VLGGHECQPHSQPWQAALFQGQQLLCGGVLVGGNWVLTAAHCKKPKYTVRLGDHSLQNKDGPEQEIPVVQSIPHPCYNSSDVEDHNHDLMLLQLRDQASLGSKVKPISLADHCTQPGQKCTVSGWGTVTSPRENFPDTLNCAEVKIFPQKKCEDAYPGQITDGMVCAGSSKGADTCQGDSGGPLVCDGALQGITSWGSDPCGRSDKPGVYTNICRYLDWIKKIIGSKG

[7] = molecular target: T4, tissue plasminogen activator (tPA) (Homo sapiens, UniProt P00750); assay: Enzyme kinetics to calculate kobs/I, tPA; type: biochemical
T4 construct: purchased BioTechne 7449-SE
Method: as §2, §3, §12, §6

Capan-2 cells [8] = settings: Capan-2 cells (active KLK6), 2 μM, 24 h, relative to DMSO
Method: (§13) Next, the effect of KLK6 inhibition on migration and invasion of Capan-2 cells was assessed using a Boyden chamber assay.
(§14) (13 µL per condition). Control conditions included puromycin (100 µg/mL), DMSO only, Sytox green only or DMSO + Sytox green. The final inhibitor concentrations ranged from 2 µM to 125 nM. The cells were placed into an Incucyte with the incubator set at 37 °C and 5% CO2. Phase and green fluorescence were analysed every 4 h for 5 days.
(§15) Invasion/migration assays. Cell invasion was measured using Corning Fluoroblok inserts following a modified procedure11. Fluoroblok inserts were placed into the wells of a 24-well plate. Matrigel was suspended to 300 µg/mL in coating buffer (0.01M Tris, 0.7% NaCl, pH 8). The matrigel suspension (100 µL) was added into the Fluoroblok insert and the plate was left at 37 °C for 2 h. A migration control (with no matrigel) was also included. Cells were trypsinised and resuspended in serum-free DMEM.
(§16) The leftover buffer in the chambers was decanted and 500 µL of cells (100,000 per well) were seeded into the apical chamber of the insert. DMEM with 10% FBS (750 µL) was added into the basal chamber as a chemoattractant. The plate was incubated at 37 °C and 5% CO2 for 24 h. The chambers were removed and placed into a new 24-well plate containing 50 µM of CellTracker CMHC dye in HBSS. The cells were stained for 0.5 h and the chamber was removed and placed into the previous plate containing DMEM with 10% FBS. The cells were imaged for blue fluorescence (ex/em = 375/460) using a Celena S inverted fluorescence microscope. Percentage invasion was calculated by quantifying the cell area

BxPC-3 cells = BxPC-3 cells (no active KLK6), 2 μM, 24 h, relative to DMSO
Method: as §13, §14, §15, §16

[9] = system: intracellular proteases of Capan-2 cells; settings: live Capan-2 cells or cell lysate, 2 h, NeutrAvidin-HRP blot
Method: S12. Probe treatment in live Capan-2 cells and cell lysate
Figure S12. Capan-2 cells were grown to 80% confluency, followed by the addition of bABP 17 or FP-biotin for 2 h. Cells were lysed, boiled with Laemmli buffer and analysed using a NeutrAivdin-HRP western blot (in cell blot). Standard Capan-2 lysate was also treated with the same amounts of bABP 17 and FP-biotin, followed by the same analysis (in lysate blot).
(1 picture or pasted object on this page, not shown here)

Capan-2 cells [10] = settings: 0.13 to 2 μM, Incucyte live cell imaging every 4 h for 5 days, serum-free DMEM
Method: Incucyte assays for proliferation and toxicity
Proliferation was quantified using the Incucyte software by measuring percentage confluency. Sytox
green was used as a marker for cell death. Cell death was quantified by measuring total green
fluorescence of each well.
Incucyte (proliferation and toxicity) assays. Capan-2 cells were seeded in a sterile 96 well plate
(10,000 cells per well). The outermost wells were left empty to mitigate edge effects. Cells were grown
in growth media (10% FBS) overnight to adhere. The next day, the media was replaced with serum-free
DMEM (117 µL) containing Sytox green (250 nM) or a DMSO control.

KLK8 [11] = molecular target: T3, KLK8; assay: Enzyme kinetics to calculate KM, KLK8; type: biochemical; settings: fluorogenic substrate, KLK8 1 nM, 2% DMSO, room temperature, 30 min, Michaelis-Menten model, triplicates
Method: as §2, §3, §4, §5, §6, §7, §8, §9, §10, §11

[12] = system: recombinant wild-type KLK6; assay: In-gel fluorescence labelling of recombinant wild-type KLK6; type: binding, human; settings: 1 h incubation
Description: as §1

KLK6[S195A] = assay: In-gel fluorescence labelling of inactive KLK6[S195A]; type: binding, human; settings: 1 h incubation
Description: as §1

[13] = Fluoroblok insert without Matrigel
[14] = Matrigel-coated Fluoroblok insert

T1 sequence (P49862 30-253): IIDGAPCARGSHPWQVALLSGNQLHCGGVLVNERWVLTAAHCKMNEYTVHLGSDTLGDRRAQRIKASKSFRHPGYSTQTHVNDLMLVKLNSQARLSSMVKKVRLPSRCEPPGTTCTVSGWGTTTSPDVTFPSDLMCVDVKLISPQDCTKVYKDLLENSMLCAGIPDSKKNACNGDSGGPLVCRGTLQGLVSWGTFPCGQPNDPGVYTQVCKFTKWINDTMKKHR
T4 sequence (P00750 36-562): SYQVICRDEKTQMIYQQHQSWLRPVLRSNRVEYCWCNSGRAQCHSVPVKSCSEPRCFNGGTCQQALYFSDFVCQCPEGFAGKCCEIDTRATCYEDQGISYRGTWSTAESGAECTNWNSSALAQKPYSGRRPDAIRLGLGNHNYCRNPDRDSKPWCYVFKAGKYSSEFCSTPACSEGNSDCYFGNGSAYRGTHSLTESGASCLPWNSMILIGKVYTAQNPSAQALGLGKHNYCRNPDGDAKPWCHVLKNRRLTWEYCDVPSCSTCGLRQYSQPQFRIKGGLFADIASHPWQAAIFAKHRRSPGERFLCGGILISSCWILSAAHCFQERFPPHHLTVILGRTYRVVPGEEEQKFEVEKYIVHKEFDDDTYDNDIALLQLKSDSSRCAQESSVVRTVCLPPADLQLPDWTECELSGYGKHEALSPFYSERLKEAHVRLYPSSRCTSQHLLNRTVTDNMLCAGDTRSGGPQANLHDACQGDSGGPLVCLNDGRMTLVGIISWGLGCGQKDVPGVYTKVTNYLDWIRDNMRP

KLK6 kobs/I (KLK6): 3000 M^–1 s^–1
Substance: Yn–DPhe–Ser(Z)–Dht–ArgPP [compound 19]
engagement of endogenous tPA and uPA (endogenous tPA and uPA): does not substantively engage

Km (KLK7 [1]): 56 µM
Substance: Ac-KHLF-{ACC} (SMILES CC(=O)N[C@@H](CCCCN)C(=O)N[C@@H](Cc1c[nH]cn1)C(=O)N[C@@H](CC(C)C)C(=O)N[C@@H](Cc1ccccc1)C(=O)Nc1ccc2c(CC(N)=O)cc(=O)oc2c1) [compound 24, purified fluorogenic substrate for KLK7]

Substance: biotin–Ahx–DPhe–Ser(Z)–Dht–ArgPP [compound 17]
proteases labeled/enriched over DMSO control [2]: KLK6, along with two off-targets, uPA and tPA | inhibition of recombinant KLK6 versus tPA and uPA [3]: selectively inhibit KLK6 over the two off-targets | KLK7 kobs/I (KLK7 [4]): 350 M⁻¹ s⁻¹ and 350 ± 90 M⁻¹ s⁻¹ | selectivity for KLK6 over KLK7 (KLK7 [4]; ratio of kobs/I): > 30 fold | labeling of endogenous KLK6 (endogenous active KLK6): efficiently labels endogenous active KLK6 | lowest probe concentration detecting active KLK6 (endogenous active KLK6; dose-dependent): 50 nM | selectivity for KLK6 over uPA ([5]; ratio of kobs/I): > 600 fold | KLK8 kobs/I (KLK8 [6]): 140 M^–1 s^–1 and 140 ± 5 M^–1 s^–1 | selectivity for KLK6 over KLK8 (KLK8 [6]; ratio of kobs/I): > 70 fold | selectivity for KLK6 over tPA ([7]; ratio of kobs/I): > 600 fold | effect on migration (Capan-2 cells [8]; [13]): reduced | effect on invasion (Capan-2 cells [8]; [14]): reduced | effect on migration (BxPC-3 cells; [13]): no effect | effect on invasion (BxPC-3 cells; [14]): no effect | labeling of intracellular proteases [9]: did not label any intracellular protease | KLK6 kobs/I (KLK6): 11000 M^–1 s^–1 and 11000 ± 300 M^–1 s^–1 | KLK6 kobs/I (KLK6; listed as IMP-2352): 11,000 M^–1 s^–1 | effect on proliferation (percentage confluency) (Capan-2 cells [10]): no effect

Km (KLK8 [11]): 290 µM
Substance: Boc-Val-Pro-Arg-{AMC}

KLK7 kobs/I (KLK7 [4]): 26 M⁻¹ s⁻¹ | uPA kobs/I ([5]; uPA 2 nM, Z-GGR-AMC 60 µM, manufacturer's buffer, room temperature, 30 min, pseudo first order kinetics, triplicates): 0 M⁻¹ s⁻¹ | KLK8 kobs/I (KLK8 [6]): 40 M^–1 s^–1 | tPA kobs/I ([7]; tPA 2 nM, Z-GGR-AMC 60 µM, manufacturer's buffer, room temperature, 30 min, pseudo first order kinetics, triplicates): 8 M⁻¹ s⁻¹ | KLK6 kobs/I (KLK6): 1000 M^–1 s^–1
Substance: Cy5–DPhe–Ser(Z)–Dht–ArgPP [compound 21, Cy5-tagged KLK6 ABP]
labeling of active recombinant KLK6 [12]: dose-dependent labeling | labeling of inactive KLK6[S195A] mutant (KLK6[S195A]): not labeled
